Entries after “also recorded” stand apart in the source; their conditions may differ.
What was measured:
[1] = biological target: T1, BRD9 (Homo sapiens, UniProt Q9H8M2); assay: Drug washout experiments in SYO-1, ASKA and OCI-AML2 cell lines; conditions: followed by washout
T1 sequence (Q9H8M2 1-597): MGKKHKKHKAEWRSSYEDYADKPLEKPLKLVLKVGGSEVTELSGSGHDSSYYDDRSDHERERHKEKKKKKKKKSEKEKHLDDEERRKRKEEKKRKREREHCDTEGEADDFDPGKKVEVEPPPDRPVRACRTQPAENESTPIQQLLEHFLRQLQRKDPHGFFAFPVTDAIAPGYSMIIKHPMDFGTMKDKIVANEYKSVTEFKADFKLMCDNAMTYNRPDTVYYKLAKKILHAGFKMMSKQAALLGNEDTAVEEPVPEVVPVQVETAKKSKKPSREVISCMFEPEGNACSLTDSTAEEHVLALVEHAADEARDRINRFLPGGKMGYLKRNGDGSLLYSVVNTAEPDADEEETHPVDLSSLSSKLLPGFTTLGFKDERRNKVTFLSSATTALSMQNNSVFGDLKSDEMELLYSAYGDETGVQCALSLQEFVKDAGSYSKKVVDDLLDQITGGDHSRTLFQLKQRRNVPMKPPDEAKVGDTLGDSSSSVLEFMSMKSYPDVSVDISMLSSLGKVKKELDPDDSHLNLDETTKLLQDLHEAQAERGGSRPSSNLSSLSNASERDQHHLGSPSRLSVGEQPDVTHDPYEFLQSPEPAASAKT
Protocol: Drug Washout Experiments in SYO-1, ASKA, and OCI-AML2 Cell Lines. To assess the duration of BRD9 protein degradation and recovery post-drug washout, extensive washout experiments were conducted in three cell lines and BRD9 protein levels were assessed through western blot analyses. SYO-1 and ASKA are adherent synovial sarcoma cell lines. OCI-AML2 is an acute myeloid leukemia suspension cell line.
Adherent cells, SYO-1 and ASKA, grown in flasks to log phase growth, were washed with PBS and dissociated by adding TrypLE™ Express.
SYO-1 cells counted and seeded into 6-well plates at a density of 0.5×10^6 cells per well in 2 mL cell culture medium. Two wells were allocated per sample. Plates were incubated at 37° C. with 5% CO2 overnight. […] After 6 hours of incubation, 1×10^6 cells or 2 wells per treated group were harvested and frozen down at −80° C. for the 6-hour treatment sample. The remainder of the compound treated wells were washed four times by replacing all the drug-treated media with an equal volume of fresh media. After the final wash step, cells were incubated in 2 mL fresh media at 37° C. with 5% CO2 for the time points indicated. Washout steps were not performed on wells treated with 0.1% DMSO and cells were harvested at the time indicated.
Two wells were allocated per sample. Plates were incubated at 37° C. with 5% CO2 overnight. […]

[2] = biological target: T1, BRD9; assay: BRD9 degradation in synovial sarcoma tumor in vivo (western blot); parameters: from tissue; host or cells: SYO-1 xenograft tumours in BALB/c nude or NOD SCID mice; species or system mice; conditions: 1 mg/kg i.p. for 4 weeks; up to 168 hours after dose
Protocol: Method: Mice were treated with D1, 1 mg/kg, i.p. for 4 weeks. Mice were then euthanized, and tumors were collected at 8 hours, 72 hours, and 168 hours post last dose. Tumors were lysed with 1×RIPA lysis buffer (Boston BioProducts, BP-115D) with protease and phosphatase protein inhibitor (Roche Applied Science #04906837001 & 05892791001). Equal amounts of lysate (30 ug) were loaded in 4-12% Bis-Tris Midi Protein Gels in 1×MOPS buffer; samples ran at 120 V for 120 minutes. Protein was transferred to membrane with TransBlot at 250 mA for 150 minutes, and then membranes were blocked with Odyssey blocking buffer for 1 hour at room temperature. Membranes were hybridized overnight in cold room with primary antibodies. Images acquired using Li-COR imaging system (Li-COR Biotechnology, Lincoln, Nebraska).

[3] = tested on: ASKA synovial sarcoma xenografts; assay: ASKA synovial sarcoma xenograft efficacy; type: in vivo; conditions: for Tumor Growth (%) on Day 21 / Tumor Size (mm^3) on Day 21: Mean ± SEM; for T/C (%) / TGI (%): Day 21
Protocol: A study was conducted to examine anti-tumor efficacy of compound S-D1 with BIW IV dosing of the racemate, compound D1, for 3 weeks utilizing a second xenograft model of human synovial sarcoma, ASKA. Vehicle (0.5% HPMC, 0.1% Tween 80 in water, pH 1.3 to 1.5), administered orally, was used as the general comparator for all test article responses (i.e., tumor growth and body weight changes). Pazopanib and ifosfamide, two agents currently used in clinic to treat synovial sarcoma patients were compared to compound D1 treatment alone. Pazopanib was administered orally at 40 mg/kg QD and ifosfamide was given IV at 80 mg/kg QD for the first 3 days (Days 0, 1, and 2) in the 3-week treatment period, mimicking the equivalent treatment regimens for both drugs in human patients.

[4] = 0.1 mg/kg BIW IV 3 weeks, ASKA xenograft
[5] = 0.5 mg/kg BIW IV 3 weeks, ASKA xenograft
[6] = 2 mg/kg BIW IV 3 weeks, ASKA xenograft
[7] = 0.5 or 2 mg/kg BIW IV, ASKA xenograft

## COc1cc(-c2cn(C)c(=O)c3cnc(N4CCC4)cc23)cc(OC)c1CN1CCC(CN2CCC3(CC2)CN(c2ccc4c(c2)C(=O)N(C2CCC(=O)NC2=O)C4)C3)CC1 (racemic) [Compound D1, 3-[6-(7-[[1-([4-[6-(azetidin-1-yl)-2-methyl-1-oxo-2,7-naphthyridin-4-yl]-2,6-dimethoxyphenyl]methyl)piperidin-4-yl]methyl]-2,7-diazaspiro[3.5]nonan-2-yl)-1-oxo-3H-isoindol-2-yl]piperidine-2,6-dione]
[1]; ASKA and OCI-AML2 cells, 15.6 nM for 6 h
  continued BRD9 depletion after washout: reproduced
[1]; SYO-1 cells treated with 15.6 nM for 6 h
  BRD9 depletion after washout: continued depletion of BRD9 up to 7 days
[2]
  degradation of BRD9 in tumor: complete degradation of BRD9 target; also recorded: BRD9 inhibition
[3]; [4]
  Tumor Growth (%) on Day 21: 440 ± 46%
  Tumor Size (mm^3) on Day 21: 634 ± 82 mm^3
[3]; 0.1 mg/kg BIW IV 3 weeks
  T/C (%): 36.1%
  TGI (%): 63.9%
[3]; [5]
  Tumor Growth (%) on Day 21: 121 ± 13%
  Tumor Size (mm^3) on Day 21: 175 ± 26 mm^3
[3]; 0.5 mg/kg BIW IV 3 weeks
  T/C (%): 9.9%
  TGI (%): 90.1%
[3]; [6]
  Tumor Growth (%) on Day 21: 92 ± 6%
  Tumor Size (mm^3) on Day 21: 130 ± 10 mm^3
[3]; 2 mg/kg BIW IV 3 weeks
  T/C (%): 7.6%
  TGI (%): 92.4%
[3]; [7]
  tumor response: Tumor stasis
  tumor stasis continued after the cessation of dosing: approximately 15 days

From US20240325370A1, “THERAPEUTIC REGIMENS OF A DEGRADER OF BRD9” (FOGHORN THERAPEUTICS INC., priority 2021, published 2024)
